Test system: normal human bronchial epithelial cells (NHBE)
Test: Cumulative dose kinetic responses of intracellular Ca++, Cl- and cell membrane potential (simultaneous Fluo-3, di-MEQ and RH421 fluorescence photon counting)
Format: cell-based
Description: Normal human bronchial/tracheal epithelial cells (NHBE, Clonetics) were cultured in T-25 cm^2 flasks at 37° C., 5% CO2 using Bronchial/Tracheal Epithelial Cell Growth Medium containing Retinoic Acid (BEGM, w/RA, Clonetics). When the NHBE cells in the T-25 flasks reached 60%-80% confluency, the cells were passaged using a seeding density of 3500 cells/cm^2. A portion of the cells was passaged in T-25 flasks again while the remaining cells were seeded on UV-exposed Vitrogen (pH balanced 1:1 BEGM to Vitrogen) coated 4-well cover glass chambers (LabTek II). NHBE cells normally attached to the collagen-coated cover glass chamber within 24 hrs. Prior to these cells reaching 60% confluency, they were used for all the experiments described below. Cells used in all the experiments were either 2nd or 3rd passage cells maintained in Bronchial/Tracheal Epithelial Cell Growth Medium with Retinoic Acid (BEGM, w/RA, Clonetics).
The following procedures for loading the cells with fluorophore were employed. Balanced Hank's (BH) solution without phenol red was used as the medium for all the fluorophore preparations and cell washings unless stated otherwise. Fluo-3 (a Ca^++ indicator), di-MEQ (a Cl^− indicator) and RH421 (a cell membrane potential indicator) were loaded into cells sequentially at room temperature. Cells were first incubated with 8 μM Fluo-3 solution for 60 minutes, followed by incubating with 50 μM di-MEQ for 5 minutes and then finally with 10 μM RH421 for 5 minutes. Extraneous dyes were washed with BH solution between each fluorophore loading procedure. The cells were allowed to stabilize in BEGM for a minimum of 15 minutes at room temperature prior to the beginning of each experiment.
Experiments were performed at room temperature. All tested agents were prepared in Balanced Hank's Solution. One of the wells of the cover glass chamber was placed on the stage of the inverted microscope and the cells loaded with the fluorophores were visually focused with the violet, green and orange emitted light from the cells approximately in the same focal plane. At a sampling frequency of 100 Hz, cells with the following photon counts were chosen for the study: 20 to 50 counts per channel (cpc) for Ca^++ fluorescence, 70 to 200 cpc for Cl^− fluorescence, and 20 to 50 cpc for cell membrane potential fluorescence. After establishing a 2 minute baseline, increasing doses of the agent of interest were added topically to the wells 2 minutes apart. At the end of each experiment, a toxic dose of the agent of interest was added to the sample to either shrink or swell the cells beyond their normal cell volume regulatory range. This caused the fluorescence signals of each of these fluorophores to reach either maximum or minimum values. […] Background fluorescence was recorded using a cell free area of the same well. If the signal to background ratio was not higher than a factor of 10, the experiments were also discarded.
The kinetic responses were measured as photon counts acquired in 10 ms intervals over>800 seconds. […] The correlation of these events and their kinetics, observations that can only be made with the present invention, provides unique insights into the mechanism by which Glibenclamide affects the cells.
UTP is a ligand to the p2Y receptor. The kinetic responses were measured as photon counts acquired in 10 ms intervals over >800 seconds.
Hyperpolarization of the cell membrane can also be induced via different cellular mechanisms such as by decreasing intracellular potassium. […] The kinetic responses were measured as photon counts acquired in 10 ms intervals over >900 seconds. It should be noted that the relative potencies of these agents in terms of the mechanisms for eliciting the temporal responses, the duration of the agent actions and the magnitude of hyperpolarization of the cell membrane can be compared and monitored for the first time. […]

COc1ccc(Cl)cc1C(=O)NCCc1ccc(S(=O)(=O)NC(=O)NC2CCCCC2)cc1 [Glibenclamide]
intracellular Ca++ response (500 μM): rapid increase
intracellular Cl- response (500 μM): simultaneous drop
membrane potential response (500 μM): simultaneous increase
cell membrane potential response (Glibenclamide 25 μM to 500 μM cumulative): hyperpolarized the cell membrane
[Cl-]i response (Glibenclamide 25 μM to 500 μM cumulative, MEQ fluorescence inversely proportional to [Cl-]i): increased
intracellular Ca++ response (concentrations below 500 μM): little affected
intracellular Cl- response (concentrations below 500 μM): declines as Glibenclamide concentration increases
membrane potential response (concentrations below 500 μM): little affected

O=c1ccn([C@@H]2O[C@H](COP(=O)(O)OP(=O)(O)OP(=O)(O)O)[C@@H](O)[C@H]2O)c(=O)[nH]1 [UTP, uridine triphosphate]
intracellular Cl- response (0.1 mM and 1 mM): essentially no changes
membrane potential response (0.1 mM and 1 mM): essentially no changes
intracellular Ca++ response (0.1 mM and 1 mM, increase followed by a measurable rate of decline): rapid increase
